Measured values taken from patent US20180369238A1, “DOPAMINE AGONISTS IN TREATING ALCOHOL USE DISORDERS ASSOCIATED WITH DOPAMINE RECEPTOR ACTIVITY” (MUSC Foundation for Research Development, priority 2017, published 2018).

How the values were obtained:
healthy adults = conditions: relative to placebo; healthy adults who carried more higher-DA alleles; cited from earlier work
[1] = test system: non-treatment-seeking AUD individuals; assay: fMRI alcohol cue-reactivity task (alcohol cue-elicited ventral striatal activation); type: in vivo, human; design: VS Activation: effect size of interaction medication x genotype permutation: scale not given here; conditions: for Alcohol cue-elicited VS activation (ALC vs. BEV percent signal change): APZ relative to placebo, day 7; for VS Activation: effect size of interaction medication x genotype permutation: n = 81
From the text: (§1) The study was an eight-day sub-acute dosing human laboratory investigation (ClinicalTrials.gov identifier: NCT01292057). After randomization to study medication, subjects underwent an fMRI alcohol cue-reactivity task on day 7 of medication ingestion and a bar-lab paradigm on day 8. To maximize cue-reactivity and motivation to drink, they were instructed to abstain from alcohol on the evenings of days 6 and 7.
(§2) Randomization and medication. […] Subjects and investigators were blind to both genotype and medication assignment. Thus, subjects were stratified by their baseline Barratt Impulsiveness Scale (BIS-11) score (Patton et al., 1995) into groups with BIS-11 scores greater vs. less than the median score of 68 and randomization was conducted separately within each stratum. Urn variables balanced across medication groups within each stratum were sex and smoking status.
Neuroimaging. On day 7, subjects were breathalyzed, assessed for alcohol withdrawal, and re-administered the OCDS. As noted above, one subject with a BAC>0 and two subjects with Clinical Institute Withdrawal Assessment for Alcohol-Revised scores >4 were excluded from scanning. After acquisition of a high-resolution anatomical image, subjects were given a sip (10 ml) of their preferred 80-proof liquor mixed with fruit juice and administered a 12-m-long task during which they passively viewed pseudo-randomly interspersed blocks of alcoholic beverage images (ALC; equally distributed between beer, wine, and liquor), nonalcoholic beverage images (BEV), blurred versions of these images that served as visual controls, and a fixation cross. Each 24-s-long block comprised only one image type and was followed by a 6-s period during which subjects were instructed to rate their urge for alcohol. Images were selected from a normative set, supplemented with images from advertisements, and matched for intensity, color, and complexity. This task consistently elicits robust cue-elicited VS activation among non-treatment-seeking AUD individuals.
Functional images were acquired with a gradient echo, echo-planar imaging sequence implemented on a 3T TIM Trio scanner (Siemens, Erlangen, Germany). Acquisition parameters were: repetition/echo times=2200/35 ms; 328 volumes; flip angle=90°; field of view=192 mm; matrix=64×64; voxel size=3.0×3.0 mm; 36 contiguous 3.0-mm-thick transverse slices. Using FEAT (fMRI Expert Analysis Tool) v. 6.00, part of FSL (FMRIB Software Library, University of Oxford, United Kingdom), functional images were realigned to the middle volume, spatially smoothed (8-mm full width at half maximum kernel), resampled to 2-mm isotropic voxels, and registered, first to the subject's high-resolution anatomical image and subsequently to the Montreal Neurological Institute (MNI; Montréal, Canada) 152-subject-average template. Based on previous data indicating an interaction between DAT1/SLC6A3 genotype and naltrexone on alcohol cue-elicited VS activation, the right VS was defined a priori as a 6-mm-radius sphere centered at the point [12 15 −6] in MNI space. For each subject, this sphere was reverse-registered from the MNI-152 image to the subject's anatomical image, and the average percentage change of the blood-oxygen-level-dependent signal between ALC and BEV blocks (i.e., ALC vs. BEV percent signal change) was extracted.
Statistical analysis. The general linear model (GLM; SPSS 23, IBM, Armonk, N.Y., United States of America) was used to test the interaction between medication and DAT1/SLC6A3 genotype on the primary outcomes (VS ALC vs. BEV activation and the number of drinks consumed in the bar lab). A model that included between-subjects factors for medication, DAT1/SLC6A3 genotype, and their interaction was tested for each outcome. Analyses first compared 9R carriers to 10R homozygotes, and subsequently examined the additive effect of the 9R allele. […] Significant interactions were followed up with simple effects contrasts. […]

[2] = test system: non-treatment-seeking AUD individuals; assay: Bar-lab paradigm (alcohol self-administration); type: in vivo, human; conditions: for Bar Lab Drinks: effect size of interaction medication x genotype permutation: n = 94
From the text: as §1, §2
Bar-lab paradigm. […] Thirty minutes later, they were provided a standard caloric lunch, adjusted for gender and weight. At 2:00 PM, subjects were administered a priming drink of their preferred 80-proof liquor in a 1:3 ratio with juice, adjusted for gender, age, and weight to produce a targeted BAC of 30 mg %, and instructed to consume it within five minutes. Forty minutes later, subjects were presented a tray of four drinks, each with a targeted BAC of 15 mg %, and told they could consume as many as they desired over the next hour. After an hour, this tray was removed and another tray of four drinks was made available for consumption over a second hour. To create a decisional balance between drinking and abstaining, subjects were given a “bar credit” of $16 with which to “purchase” drinks, at the cost of $2/drink. After the procedure, subjects were given dinner and remained until 10:00 PM. A BAC measurement below 20 mg % was required before departure, and a friend or taxi drove subjects home.
Statistical analysis. The general linear model (GLM; SPSS 23, IBM, Armonk, N.Y., United States of America) was used to test the interaction between medication and DAT1/SLC6A3 genotype on the primary outcomes (VS ALC vs. BEV activation and the number of drinks consumed in the bar lab). A model that included between-subjects factors for medication, DAT1/SLC6A3 genotype, and their interaction was tested for each outcome. Analyses first compared 9R carriers to 10R homozygotes, and subsequently examined the additive effect of the 9R allele. […] Significant interactions were followed up with simple effects contrasts. VS activation was also analyzed for correlation (Pearson's r) with day 7 OCDS scores and bar-lab drinking.
The GLM was also used to test the interaction between medication and a DA-related genetic composite on the primary outcomes. The DAT1/SLC6A3 9R, COMT met, DRD2 T, and DRD4 long alleles were categorized as higher-DA alleles, and the total number of alleles each subject carried was calculated (Table 2). Few subjects carried more than four higher-DA alleles (four subjects had five alleles and one had seven), so these subjects were combined with those who carried four, yielding five groups of subjects with zero (n=7), one (n=15), two (n=31), three (n=22), or four or more (n=18) alleles. A model that included between-subjects factors for medication, the additive effect of the number of higher-DA alleles, and their interaction was tested for each outcome.

[3] = test system: non-treatment-seeking AUD individuals; assay: Adverse effects, physical symptom checklist; type: in vivo, human; conditions: for Number of subjects with insomnia severity Mild / Number of subjects with insomnia severity Moderate / Number of subjects with insomnia severity None / Number of subjects with insomnia severity Severe: APZ group
From the text: Adverse effects. A physical symptom checklist was used to assess the presence and severity (self-rated as none, mild, moderate, or severe) of 21 possible adverse effects at baseline and on day 8 immediately before the bar-lab paradigm.
For the secondary outcome (adverse effect severity), the GLM was first used to evaluate the main effect of medication on the presence/absence of each effect. […] To account for the influence of these effects on the pharmacogenetic interactions evaluated above, the presence/absence of each was evaluated as a covariate in all models.

AUD = conditions: multisite AUD clinical trial; cited from earlier work
[4] = cited from earlier work
[5] = 9R carriers vs. 10R homozygotes, APZ vs. placebo
[6] = DAT1 (additive effect of 9R alleles), APZ reduced more with more alleles
[7] = DAT1 (additive effect of 9R alleles), APZ reduced more with more alleles, listed as aripiprazole
[8] = DAT1 + COMT + DRD2 + DRD4 (higher-DA alleles composite)

SMILES: CCCN(CCC)CCc1cccc2c1CC(=O)N2 [ropinirole]
- Impulsive decisions (healthy adults): increased impulsive decisions

SMILES: O=C1CCc2ccc(OCCCCN3CCN(c4cccc(Cl)c4Cl)CC3)cc2N1 [APZ, aripiprazole]
- Effect size (partial η2) of interaction medication x DAT1/SLC6A3 genotype on VS activation [1, 5]: 0.061
- Alcohol cue-elicited VS activation (ALC vs. BEV percent signal change) ([1]; DAT1/SLC6A3 9R carriers): reduced VS activation
- Alcohol cue-elicited VS activation (ALC vs. BEV percent signal change) ([1]; DAT1/SLC6A3 10R homozygotes): increased it
- VS Activation: effect size of interaction medication x genotype permutation [1, 6]: 0.067
- VS Activation: effect size of interaction medication x genotype permutation [1, 7]: 0.063
- VS Activation: effect size of interaction medication x genotype permutation [1, 8]: 0.051
- VS Activation: effect size of interaction medication x genotype permutation ([1]; DAT1 + COMT + DRD2): 0.026
- VS Activation: effect size of interaction medication x genotype permutation ([1]; DAT1 + DRD2 + DRD4): 0.084
- VS Activation: effect size of interaction medication x genotype permutation ([1]; DAT1 + DRD2): 0.068
- VS Activation: effect size of interaction medication x genotype permutation ([1]; DAT1 + DRD4): 0.077
- Effect size (partial η2) of interaction medication x DAT1/SLC6A3 genotype on bar-lab drinking [2, 5]: 0.064
- Bar-lab drinking (number of drinks consumed) ([2]; APZ relative to placebo, DAT1/SLC6A3 9R carriers, day 8): reduced drinking
- Effect size (partial η2) of main effect of medication on bar-lab drinking ([2]; APZ vs. placebo, all subjects): 0.049
- Bar Lab Drinks: effect size of interaction medication x genotype permutation [2, 6]: 0.068
- Bar Lab Drinks: effect size of interaction medication x genotype permutation [2, 7]: 0.050
- Bar Lab Drinks: effect size of interaction medication x genotype permutation [2, 8]: 0.069
- Bar Lab Drinks: effect size of interaction medication x genotype permutation ([2]; DAT1 + COMT + DRD2): 0.100
- Bar Lab Drinks: effect size of interaction medication x genotype permutation ([2]; DAT1 + COMT + DRD4): 0.071
- Bar Lab Drinks: effect size of interaction medication x genotype permutation ([2]; DAT1 + COMT): 0.079
- Bar Lab Drinks: effect size of interaction medication x genotype permutation ([2]; DAT1 + DRD2 + DRD4): 0.072
- Bar Lab Drinks: effect size of interaction medication x genotype permutation ([2]; DAT1 + DRD2): 0.081
- Bar Lab Drinks: effect size of interaction medication x genotype permutation ([2]; DAT1 + DRD4): 0.045
- Effect size (partial η2) of simple effect of medication on bar-lab drinking ([2]; among DAT1/SLC6A3 9R carriers, APZ vs. placebo): 0.12
- Effect size (partial η2) of simple effect of medication on bar-lab drinking ([2]; among subjects with four or more higher-DA alleles, APZ vs. placebo): 0.15
- Number of subjects with insomnia severity Mild ([3]; 9R carriers): 11
- Number of subjects with insomnia severity Moderate ([3]; 9R carriers): 6
- Number of subjects with insomnia severity None ([3]; 9R carriers): 11
- Number of subjects with insomnia severity Severe ([3]; 9R carriers): 0
- Number of subjects with insomnia severity Mild ([3]; 10R homozygotes): 8
- Number of subjects with insomnia severity Moderate ([3]; 10R homozygotes): 4
- Number of subjects with insomnia severity None ([3]; 10R homozygotes): 2
- Number of subjects with insomnia severity Severe ([3]; 10R homozygotes): 4
- Frequency of insomnia, daytime sleepiness, irritability, trouble concentrating, nausea/vomiting, dizziness, fatigue, blurry vision, difficulty reaching orgasm ([3]; APZ group vs. placebo, p<0.05, day 8): significantly more frequent
- Insomnia severity ([3]; APZ relative to placebo, DAT1/SLC6A3 9R carriers): did not
- Insomnia severity ([3]; APZ relative to placebo, DAT1/SLC6A3 10R homozygotes): more severe insomnia
- Insomnia severity ([3]; among subjects who received APZ, with a greater number of higher-DA alleles): less severe
- Alcohol consumption biomarker (AUD): significantly improve
- Drinks per drinking day (AUD): significantly improve
- Primary drinking outcome (percent days abstinent) (AUD): did not significantly change
- Euphoric effects of alcohol drinking ([4]; natural environment or bar-lab setting): reduce
- Alcohol cue-elicited VS activation ([4]; reported earlier): reduce
